The data set can be described thus: Glucuronidation of 1′-hydroxymyristicin, male rat liver S9. Format: in vitro ADME. The protocol:
The kinetic constants for the metabolic conversion of 1′-hydroxymyristicin to 1′-hydroxymyristicin glucuronide (HMG) by both male rat and human liver fractions were determined as described previously for the related 1′-hydroxyalkenylbenzenes (Punt et al. [2008]; van den Berg et al. [2012]; Punt et al. [2009]; Martati et al. [2011], [2012]; Al-Subeihi et al. [2011], [2012]). Briefly, incubations contained (final concentrations) 10 mM of UDPGA and 0.5 mg/ml of male Sprague–Dawley or pooled gender human S9 protein in 0.2 M Tris–HCl (pH 7.4) containing 10 mM of MgCl2. To overcome enzyme latency and to obtain maximal glucuronidation activity, incubations containing S9 were pretreated on ice with 0.025 mg/ml alamethicin added from a 200 times concentrated stock dissolved in methanol (Fisher et al. [2000]; Lin and Wong [2002]). After 15 min of alamethicin treatment, samples were pre-incubated at 37 °C for 1 min, and reactions were subsequently started by adding 1′-hydroxymyristicin at final concentrations of 10 to 1200 μM. 1′-Hydroxymyristicin was added from 100 times concentrated stock solutions in DMSO. The reaction mixtures were incubated for 30 and 180 min for rat and human, respectively, and terminated by adding 25 µl (0.25 times the incubation volume) of ice-cold ACN. Blank incubations were carried out in the absence of the cofactor UDPGA. Experiments were performed in triplicate. The longer incubation time in human samples was required due to the lower rate of glucuronidation. The formation of 1′-hydroxymyristicin glucuronide was linear with time and the S9 protein concentration under the experimental conditions described. All samples were centrifuged for 5 min at 16,000×g, and the supernatant was stored at −20 °C until ultra-performance liquid chromatography (UPLC) analysis.
1′-Hydroxymyristicin glucuronide was estimated based on the comparison of the peak area of the formed metabolite to the calibration curve of 1′-hydroxymyristicin at a wavelength of 210 nm. The flow rate was 0.6 ml/min. The gradient was made using a mixture of ACN and ultrapure water containing 0.1 % (v/v) TFA.

Structures are written as SMILES.

Turning to `C=CC(O)c1cc(OC)c2c(c1)OCO2` (centres unmarked) [1′-Hydroxymyristicin, 1′-hydroxymyristicin], the Km (usually the concentration of substrate that gives half-maximal velocity) at 30 min (male, Sprague-Dawley, rat, pH 7.4, 1′-hydroxymyristicin to its glucuronide, S9, UDPGA, read-out: Km) was 836 µM. In addition, the “catalytic efficiency of glucuronidation, fold higher in male rats than in human” value (rat vs human) worked out at 400 fold.

The values above are taken from PMC5306082, “Physiologically based kinetic modeling of the bioactivation of myristicin” (Archives of Toxicology, 2016).
